US20120040916A1, “MOLECULAR INHIBITORS OF THE WNT/BETA-CATENIN PATHWAY” (MASSACHUSETTS INSTITUTE OF TECHNOLOGY, priority 2008, published 2012)

Columns and labels:
[1] = test system: nuclear β-catenin in B16 cells; test: Immunofluorescent staining of β-catenin in B16 cells; format: cell-based, murine
Method: A polyclonal rabbit anti-β-catenin antibody was used for detection of β-catenin (1:1000 dilution for immunoblot, 1:200 dilution for immunohistochemistry). Cells were grown on 18 mm glass coverslips, for 48-72 hours, fixed using 4% paraformaldehyde, permeabilized using 0.25% Triton X-100, and then blocked with 10% goat serum. Goat anti-rabbit Alexa Fluor-568 antibody (Molecular Probes; Eugene, Oreg.) was diluted 1:1000. Cells were counterstained for nucleic acid with DAPI (Molecular Probes; Eugene, Oreg.). Paraffin-embedded nevus sections were stained using an antibody dilution of 1:200. Cellular lysates were obtained by lysing cells on plate with a 0.1% NP-40 based buffer and analyzed by NuPage 4-12% gradient gels (Invitrogen; Grand Island, N.Y.). The WNT5A antibody was obtained from Cell Signaling Technologies (Danvers, Mass.).

[2] = test system: Wnt/β-catenin pathway (Axin2) in B16 cells; test: Quantitative PCR of Axin2 in B16 cells; format: cell-based, murine
Method: Cells were cultured for approximately 72 hours until they reached 80-90% confluency. RNA was purified using the RNeasy kit using the manufacturer's protocol (Qiagen; Maryland, MD). cDNA was synthesized using Superscript Reverse Transcriptase (Invitrogen; Grand Island, N.Y.). Light Cycler FastStart DNA Master SYBR Green1 (Roche; Mannheim, Germany) was used for real-time PCR as previously described (Major et al., Science 316:1043 (2007), which is hereby incorporated by reference in its entirety). Quantitative PCR results presented in the manuscript are representative of experiments performed on a minimum of three biologic replicates.

B16 melanoma cells = test: MTT proliferation assay of B16 melanoma cells; format: cell-based, murine
[3] = test system: human melanoma cell lines; test: Proliferation of human melanoma cell lines (hematocytometer or MTT assay); format: cell-based; conditions: 10 mM lithium chloride, 3-7 days, FIG. 4D

Structure (SMILES)	Nuclear β-catenin by immunofluorescent staining ([1]; 1 μM BIO vs DMSO, FIG. 5B)	Axin2 levels by quantitative PCR ([2]; 1 μM BIO vs control cells, FIG. 5D)	Proliferation by MTT assay (B16 melanoma cells; 1 μM BIO vs control cells, FIG. 5F)	Proliferation, normalized to growth in 10 mM sodium chloride [3]	Nuclear β-catenin by immunofluorescent staining ([1]; 10 mM lithium chloride vs 10 mM sodium chloride, FIG. 5A)	Axin2 levels by quantitative PCR ([2]; 10 mM lithium chloride vs control cells, FIG. 5C)	Proliferation by MTT assay (B16 melanoma cells; 10 mM lithium chloride vs control cells, FIG. 5E)
O=C1Nc2cc(Br)ccc2/C1=C1/Nc2ccccc2/C1=N\O [BIO]	increased nuclear β-catenin	increased Axing levels	decreased proliferation				
[Cl-].[Li+] [lithium chloride]				inhibited proliferation in all human melanoma cell lines tested	increased nuclear β-catenin	increased Axing levels	decreased proliferation
